Measurements from the NIST ThermoML archive (doi:10.1021/je030130y).

Test: xn = mol fraction of the nth substance listed
Conditions: 101.3 kPa, Liquid; for viscosity: Capillary tube (Ostwald / Ubbelohde) method; for mass density: Pycnometric method

Clc1ccccc1 [chlorobenzene] + CN(C)C=O
Conditions | mass density, 298.15 K [kg/m3] | mass density, 303.15 K [kg/m3] | mass density, 308.15 K [kg/m3] | mass density, 313.15 K [kg/m3] | viscosity, 298.15 K [mPa·s] | viscosity, 303.15 K [mPa·s] | viscosity, 308.15 K [mPa·s] | viscosity, 313.15 K [mPa·s]
x2 = 0 | 1100.9 | 1095.8 | 1090.8 | 1085.1 | 0.756 | 0.714 | 0.673 | 0.635
x2 = 0.1473 | 1083.5 | 1078.5 | 1073.6 | 1068.1 | 0.79 | 0.745 | 0.701 | 0.661
x2 = 0.2093 | 1076.3 | 1071.3 | 1066.5 | 1063.1 | 0.804 | 0.757 | 0.712 | 0.671
x2 = 0.2762 | 1068.1 | 1063.2 | 1058.3 | 1052.9 | 0.818 | 0.77 | 0.723 | 0.681
x2 = 0.4032 | 1051.2 | 1046.3 | 1041.5 | 1036.3 | 0.838 | 0.788 | 0.739 | 0.696
x2 = 0.4661 | 1042.2 | 1037.3 | 1032.5 | 1027.2 | 0.847 | 0.795 | 0.745 | 0.702
x2 = 0.6084 | 1020.2 | 1015.4 | 1010.6 | 1005.4 | 0.862 | 0.808 | 0.757 | 0.714
x2 = 0.7009 | 1003.8 | 999.1 | 994.5 | 989.4 | 0.856 | 0.803 | 0.752 | 0.709
x2 = 0.7842 | 988.1 | 983.4 | 978.7 | 973.7 | 0.846 | 0.794 | 0.744 | 0.702
x2 = 0.9351 | 957.7 | 953 | 948.3 | 943.4 | 0.818 | 0.769 | 0.721 | 0.683

Clc1ccccc1 [chlorobenzene] + c1ccccc1
Conditions | mass density, 298.15 K [kg/m3] | mass density, 303.15 K [kg/m3] | mass density, 308.15 K [kg/m3] | mass density, 313.15 K [kg/m3] | viscosity, 298.15 K [mPa·s] | viscosity, 303.15 K [mPa·s] | viscosity, 308.15 K [mPa·s] | viscosity, 313.15 K [mPa·s]
x2 = 0 | 1100.9 | 1095.8 | 1090.8 | 1085.1 | 0.756 | 0.714 | 0.673 | 0.635
x2 = 0.1206 | 1076.5 | 1071.4 | 1066.4 | 1060.7 | 0.744 | 0.699 | 0.656 | 0.618
x2 = 0.2642 | 1046.5 | 1041.4 | 1036.3 | 1030.7 | 0.727 | 0.682 | 0.639 | 0.601
x2 = 0.3982 | 1017.5 | 1012.4 | 1007.3 | 1001.7 | 0.711 | 0.667 | 0.623 | 0.585
x2 = 0.4644 | 1002.8 | 997.7 | 992.6 | 987 | 0.702 | 0.659 | 0.616 | 0.578
x2 = 0.5321 | 987.7 | 982.5 | 977.3 | 971.7 | 0.694 | 0.65 | 0.607 | 0.57
x2 = 0.6074 | 970.4 | 965.2 | 960 | 954.5 | 0.683 | 0.64 | 0.598 | 0.561
x2 = 0.7069 | 946.8 | 941.6 | 936.4 | 930.9 | 0.665 | 0.623 | 0.582 | 0.545
x2 = 0.8131 | 920.9 | 915.7 | 910.5 | 905 | 0.643 | 0.601 | 0.562 | 0.527
x2 = 0.9162 | 895 | 889.8 | 884.6 | 879.2 | 0.621 | 0.583 | 0.545 | 0.512

CN(C)C=O [dimethylformamide] + c1ccccc1
Conditions | mass density, 298.15 K [kg/m3] | mass density, 303.15 K [kg/m3] | mass density, 308.15 K [kg/m3] | mass density, 313.15 K [kg/m3] | viscosity, 298.15 K [mPa·s] | viscosity, 303.15 K [mPa·s] | viscosity, 308.15 K [mPa·s] | viscosity, 313.15 K [mPa·s]
x1 = 0.1076 | 881.1 | 876 | 870.8 | 865.4 | 0.622 | 0.585 | 0.547 | 0.515
x1 = 0.2069 | 888.4 | 883.5 | 878.4 | 873.3 | 0.641 | 0.603 | 0.564 | 0.531
x1 = 0.3124 | 896.3 | 891.4 | 886.5 | 881.5 | 0.662 | 0.622 | 0.582 | 0.549
x1 = 0.4132 | 904.2 | 899.4 | 894.6 | 889.6 | 0.688 | 0.645 | 0.602 | 0.567
x1 = 0.5148 | 911.7 | 906.9 | 902.2 | 897.2 | 0.712 | 0.67 | 0.627 | 0.592
x1 = 0.6145 | 918.6 | 913.7 | 908.9 | 904 | 0.731 | 0.688 | 0.644 | 0.608
x1 = 0.7093 | 925 | 920.2 | 915.4 | 910.3 | 0.747 | 0.703 | 0.659 | 0.622
x1 = 0.8084 | 931.6 | 927 | 922.2 | 917.2 | 0.763 | 0.718 | 0.673 | 0.636
x1 = 0.8998 | 936.8 | 932.1 | 927.4 | 922.5 | 0.78 | 0.734 | 0.689 | 0.651
x1 = 1 | 944.5 | 939.8 | 935.1 | 930.2 | 0.803 | 0.756 | 0.71 | 0.673
